# Experimental data as given in publication PMC10518255, “A first-in-class pan-lysyl oxidase inhibitor impairs stromal remodeling and enhances gemcitabine response and survival in pancreatic cancer” (Nature Cancer, 2023).
# Where “and” joins values, the source holds several entries; their conditions need not be identical. Identical values can stand only once.
# Assays:
# pMLC2 = test: Immunohistochemistry of end-point KPC tumors: stromal regions; assay type: in vivo, mouse; settings: for Quantification of pMLC2 positive staining in stromal regions: Extended Data 6D, KPC tumours at endpoint, individual FOV
# Procedure: All tissues or matrices, including patient TMAs, were fixed in 10% buffered formalin and embedded in paraffin. The 4-μm sections of samples were deparaffinized with xylene and rehydrated in graded ethanol washes. For immunohistochemistry, Bond Dewax Solution (AR9222) was used. Antigen retrieval was performed using Bond RX H2(30) protocol: HIER 30 min ER1 (citrate pH 6) OR ER2 (EDTA pH 9) at 100 °C. Slides were quenched in BOND Polymer Refine Detection (Leica Biosystems DS9800). […] Slides were digitized on an Aperio slide scanner and representative areas per tumor acquired and analyzed by researchers blinded to the conditions of the experiment.
# Extended Data Fig. 6 PXS-5505 in combination with gemcitabine in a KPC model. a. Quantification of proliferating cells (Ki67 positive nuclear staining) in KPC tumors at end point, treated as indicated. 5 fields of view (500 μm × 500 μm) per mouse and 10 mice per cohort were scored. […] Quantification of percent coverage of αSMA positive staining in KPC tumors at end point, treated as indicated. 3 fields of view (1000 μm × 1000 μm) per mouse and 10 mice per cohort were scored. […] Quantification of percent coverage of PDGFR-ß positive staining in KPC tumors at end point, treated as indicated. 3 fields of view (1000 μm × 1000 μm) per mouse and 10 mice per cohort were scored. […] Quantification of pMLC2 positive staining in stromal regions of KPC tumors at end point, treated as indicated. 3 fields of view (500 μm × 500 μm) per mouse and 10 mice per cohort were scored. […] Quantification of tumor vasculature (CD31 positive staining) in KPC tumors at end point, treated as indicated. 3 fields of view (1000 μm × 1000 μm) per mouse and 10 mice per cohort were scored. […] Quantification of STAT3 activation (pSTAT3 positive nuclear staining) in KPC tumors at end point, treated as indicated. 3 fields of view (1000 μm × 1000 μm) per mouse and 5 mice per cohort were scored. […] Scale bars = 100 μm. g Quantification of macrophage infiltration (F4/80 positive staining) in KPC tumors at end point, treated as indicated. […]
# Recombinant MAO-A = Recombinant MAO-A (Homo sapiens, UniProt P21397); test: IC50 determination against other human amine oxidases; assay type: biochemical
# From the text: Data are presented as mean ± s.d. […] Data presented as mean ± s.d. […] Source data TEXT PRINTED IN THE PICTURE: (b) PXS-5505: Recombinant DAO IC50 (nM): >30,000; Recombinant SSAO/VAP1 IC50 (nM): >30,000; Recombinant MAO-A IC50 (nM): >30,000; Recombinant MAO-B IC50 (nM): >30,000 | (f) PXS-5505: Fibroblast LOX IC50 (nM): 4,930; Recombinant LOXL-1 IC50 (nM): 1,590; Recombinant LOXL-2 IC50 (nM): 570; Recombinant LOXL-3 IC50 (nM): 1,800; Recombinant LOXL-4 IC50 (nM): 190
# [1] = tested on: lysyl oxidase family activity in conditioned medium from KPC CAFs; test: Amplex red enzymatic activity assay on cell-derived conditioned medium (Extended Data Fig. 3g); assay type: biochemical, mouse; set-up: Lysyl oxidase family activity in conditioned media: unit not given here; settings: for Lysyl oxidase family activity in conditioned media: KPC CAF CM, replicates
# Procedure: (§1) Cell-derived conditioned medium was prepared from KPC CAFs and CCs grown in phenol red-free DMEM with 0.1% FBS and 10 μM CuSO4 for 24 h. At collection, size filtration >10 kDa for 40× concentration and buffer exchange (1.2 M urea and 50 mM sodium borate buffer, pH 8.2) were performed and subsequently used for the Amplex red assay as previously described[59] using putrescine as a substrate. Three biological repeats were performed.
# (§2) Data presented as mean values +/− SD. f. […] Data presented as mean values +/− SD. […] Data presented as mean values +/− SD. […] Data presented as mean values +/− SD. Ordinary one-way ANOVA for multiple comparison test performed. Source data
# [2] = tested on: lysyl oxidase family activity in conditioned medium from KPC cancer cells; test: as above; assay type: biochemical, mouse; set-up: Lysyl oxidase family activity in conditioned media: unit not given here; settings: for Lysyl oxidase family activity in conditioned media: KPC cancer cells CM, replicates
# Procedure: as §1, §2
# Chain of Recombinant MAO-A (P21397 whole entry): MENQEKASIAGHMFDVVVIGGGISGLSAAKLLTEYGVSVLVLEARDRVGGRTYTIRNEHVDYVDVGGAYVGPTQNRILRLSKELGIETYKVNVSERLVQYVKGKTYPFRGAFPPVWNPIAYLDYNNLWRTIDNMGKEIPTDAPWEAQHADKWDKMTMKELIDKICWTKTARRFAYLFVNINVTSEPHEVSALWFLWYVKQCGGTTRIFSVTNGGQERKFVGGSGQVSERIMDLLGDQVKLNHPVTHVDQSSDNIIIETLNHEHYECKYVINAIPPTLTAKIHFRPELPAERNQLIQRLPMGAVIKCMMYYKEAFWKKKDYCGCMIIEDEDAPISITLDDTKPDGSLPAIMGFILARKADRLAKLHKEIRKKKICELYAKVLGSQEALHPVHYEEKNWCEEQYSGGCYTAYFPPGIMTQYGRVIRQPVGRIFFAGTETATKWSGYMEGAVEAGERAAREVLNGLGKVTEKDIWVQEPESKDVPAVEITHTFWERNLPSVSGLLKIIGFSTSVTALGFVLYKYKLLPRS
smiles,measurement,setting,value
"Nc1ccn([C@@H]2O[C@H](CO)[C@@H](O)C2(F)F)c(=O)n1 [Gem, gemcitabine]",Quantification of pMLC2 positive staining in stromal regions,pMLC2,92.08 and 84.2 and 87.45 and 82.3 and 82.92 and 94.71 and 90.49 and 43.06 and 73.39 and 39.68 and 25.28 and 42.05 and 30.69 and 23.6 and 44.73 and 91.07 and 86.73 and 81.83 and 77.4 and 63.11 and 93.35 and 65.58 and 88.53 and 67.95 and 49 and 89.81 and 73.17 and 62.17 and 93.12 and 52.2
same,pMLC2 in stromal regions,pMLC2; KPC tumors at end point,increased pMLC2
"Cl.Cl.NC/C=C(\F)CS(=O)(=O)c1cccc2cccnc12.O [PXS-5505, (Z)-3-fluoro-4-(quinolin-8-ylsulfonyl)but-2-en-1-amine dihydrochloride monohydrate]",IC50,Recombinant MAO-A,> 30 µM
same,Lysyl oxidase family activity in conditioned media,[1]; 1.5 nM PXS,95.9609 and 94.079 and 81.6749
same,Lysyl oxidase family activity in conditioned media,[1]; 3 nM PXS,109.447 and 108.981 and 81.5719
same,Lysyl oxidase family activity in conditioned media,[1]; 15 nM PXS,100.129 and 99.9799 and 74.1019
same,Lysyl oxidase family activity in conditioned media,[1]; 30 nM PXS,107.999 and 96.3316 and 79.5133
same,Lysyl oxidase family activity in conditioned media,[1]; 150 nM PXS,79.0426 and 71.3415 and 64.7518
same,Lysyl oxidase family activity in conditioned media,[1]; 300 nM PXS,88.3802 and 67.0866 and 51.1694
same,Lysyl oxidase family activity in conditioned media,[1]; 1.5 uM PXS,45.307 and 27.142 and 15.754
same,Lysyl oxidase family activity in conditioned media,[1]; 3 uM PXS,31.4691 and 22.608 and 3.789
same,Lysyl oxidase family activity in conditioned media,[1]; 15 uM PXS,-3.917 and 9.401 and -5.483
same,Lysyl oxidase family activity in conditioned media,[1]; 30 uM PXS,-4.091 and 9.102 and -4.018
same,inhibition of lysyl oxidase family activity in conditioned medium,[1]; KPC CAFs,inhibition of lysyl oxidase family activity
same,inhibition of lysyl oxidase family activity in conditioned medium,[2]; KPC CCs,inhibition of lysyl oxidase family activity
same,Lysyl oxidase family activity in conditioned media,[2]; 1.5 nM PXS,52.7404 and 147.39 and 87.9635
same,Lysyl oxidase family activity in conditioned media,[2]; 3 nM PXS,57.9047 and 143.925 and 88.9618
same,Lysyl oxidase family activity in conditioned media,[2]; 15 nM PXS,58.7665 and 150.554 and 90.679
same,Lysyl oxidase family activity in conditioned media,[2]; 30 nM PXS,57.8418 and 141.264 and 86.9464
same,Lysyl oxidase family activity in conditioned media,[2]; 150 nM PXS,55.9673 and 128.167 and 75.6773
same,Lysyl oxidase family activity in conditioned media,[2]; 300 nM PXS,56.4831 and 97.2065 and 57.86
same,Lysyl oxidase family activity in conditioned media,[2]; 1.5 uM PXS,35.0772 and 43.4748 and 18.796
same,Lysyl oxidase family activity in conditioned media,[2]; 3 uM PXS,22.4023 and 21.6286 and 3.933
same,Lysyl oxidase family activity in conditioned media,[2]; 15 uM PXS,-2.759 and 11.8534 and -9.095
same,Lysyl oxidase family activity in conditioned media,[2]; 30 uM PXS,-2.098 and 9.262 and -6.1538
same,Quantification of pMLC2 positive staining in stromal regions,pMLC2,16.71 and 49.28 and 7.302 and 93.81 and 91.78 and 78.97 and 53.28 and 54.73 and 45.61 and 13.2 and 20.93 and 42.23 and 36.07 and 17.51 and 40.83 and 47.04 and 47.28 and 39.88 and 19.03 and 15.52 and 73.22 and 64.14 and 60.07 and 90.97 and 8.8 and 20.91 and 61.66 and 4.245 and 28.34 and 17.54
